Measured values published in PubChem BioAssay AID192 (DTP/NCI, 2004).
Several values for one entry are separate records, joined by “and”; a condition that tells them apart may be missing. Equal entries are not always repeated. Inconclusive results and toxic doses are left out.

Test system: BDF1 mice, B16 melanoma ip, median survival T/C
Assay: NCI In Vivo Anticancer Drug Screen. Data for tumor model B16 Melanoma (intraperitoneal) in B6D2F1 (BDF1) mice
Settings: endpoint: median survival time, higher = longer survival
Procedure: The antitumor activity of compounds was measured in mice bearing transplantable tumors. Survival or tumor size were measured and the results are expressed as the measurement made in the treated group (T) divided by the measurement made in the vehicle treated control group (C). The tumor model used in this assay is B16 Melanoma (intraperitoneal) in B6D2F1 (BDF1) mice

[1] = dose: 1.0 mg/kg/injection, schedule: Q01DX009 (ip), vehicle: saline with Tween-80
[2] = dose: 2.0 mg/kg/injection, schedule: Q01DX009 (ip), vehicle: saline with Tween-80
[3] = dose: 6.25 mg/kg/injection, schedule: Q01DX009 (ip), vehicle: saline
[4] = dose: 8.0 mg/kg/injection, schedule: Q01DX009 (ip), vehicle: saline with Tween-80
[5] = dose: 12.5 mg/kg/injection, schedule: Q01DX009 (ip), vehicle: saline

Compound: C[n+]1ccc(Nc2ccc(NC(=O)c3ccc(Nc4cc[n+](C)c5ccc(N)cc45)cc3N)cc2)cc1
- T/C [1]: 98 % of control
- T/C (dose: 1.0 mg/kg/injection, schedule: Q02DX009 (ip), vehicle: Klucel (hydroxypropylcellulose) (HPC)): 103 % of control and 105 % of control
- T/C [2]: 105 % of control
- T/C (dose: 2.0 mg/kg/injection, schedule: Q02DX009 (ip), vehicle: Klucel (hydroxypropylcellulose) (HPC)): 109 % of control and 113 % of control
- T/C (dose: 4.0 mg/kg/injection, schedule: Q01DX009 (ip), vehicle: saline with Tween-80): 109 % of control
- T/C (dose: 4.0 mg/kg/injection, schedule: Q02DX009 (ip), vehicle: Klucel (hydroxypropylcellulose) (HPC)): 101 % of control and 106 % of control
- T/C (dose: 6.25 mg/kg/injection, schedule: Q01DX009 (ip), vehicle: Klucel (hydroxypropylcellulose) (HPC)): 109 % of control
- T/C [3]: 104 % of control
- T/C [4]: 106 % of control
- T/C (dose: 8.0 mg/kg/injection, schedule: Q02DX009 (ip), vehicle: Klucel (hydroxypropylcellulose) (HPC)): 108 % of control and 110 % of control
- T/C (dose: 12.5 mg/kg/injection, schedule: Q01DX009 (ip), vehicle: Klucel (hydroxypropylcellulose) (HPC)): 105 % of control
- T/C [5]: 102 % of control
- T/C (dose: 16.0 mg/kg/injection, schedule: Q01DX009 (ip), vehicle: saline with Tween-80): 106 % of control
- T/C (dose: 16.0 mg/kg/injection, schedule: Q02DX009 (ip), vehicle: Klucel (hydroxypropylcellulose) (HPC)): 109 % of control and 113 % of control
- T/C (dose: 25.0 mg/kg/injection, schedule: Q01DX009 (ip), vehicle: Klucel (hydroxypropylcellulose) (HPC)): 89 % of control
- T/C (dose: 32.0 mg/kg/injection, schedule: Q02DX009 (ip), vehicle: Klucel (hydroxypropylcellulose) (HPC)): 92 % of control and 97 % of control

Compound: CC(Br)C(=O)NC(C)C(=O)O (stereo unspecified)
- T/C (dose: 12.5 mg/kg/injection, schedule: Q01DX009 (ip), vehicle: saline with Tween-80): 93 % of control
- T/C (dose: 25.0 mg/kg/injection, schedule: Q01DX009 (ip), vehicle: saline with Tween-80): 89 % of control
- T/C (dose: 50.0 mg/kg/injection, schedule: Q01DX009 (ip), vehicle: saline with Tween-80): 90 % of control

Compound: C[N+](C)([O-])CCC=C1c2ccccc2CCc2ccccc21
- T/C [3]: 95 % of control
- T/C [5]: 90 % of control
- T/C (dose: 50.0 mg/kg/injection, schedule: Q01DX009 (ip), vehicle: saline): 90 % of control

Compound: Cc1noc(/N=C/c2ccccc2)c1C
- T/C (dose: 100.0 mg/kg/injection, schedule: Q04DX003 (ip), vehicle: Klucel (hydroxypropylcellulose) (HPC)): 108 % of control
- T/C (dose: 200.0 mg/kg/injection, schedule: Q04DX003 (ip), vehicle: Klucel (hydroxypropylcellulose) (HPC)): 105 % of control
- T/C (dose: 400.0 mg/kg/injection, schedule: Q04DX003 (ip), vehicle: Klucel (hydroxypropylcellulose) (HPC)): 108 % of control

Compound: C1CN1P1(N2CC2)=NP(N2CC2)(N2CC2)=NP(N2CC2)(N2CC2)=N1
- T/C (dose: 0.25 mg/kg/injection, schedule: Q02DX009 (ip), vehicle: saline with Tween-80): 87 % of control
- T/C (dose: 0.5 mg/kg/injection, schedule: Q01DX009 (ip), vehicle: saline with Tween-80): 108 % of control
- T/C (dose: 0.5 mg/kg/injection, schedule: Q02DX009 (ip), vehicle: saline with Tween-80): 101 % of control
- T/C [1]: 124 % of control
- T/C (dose: 1.0 mg/kg/injection, schedule: Q02DX009 (ip), vehicle: saline with Tween-80): 87 % of control and 94 % of control
- T/C [2]: 123 % of control
- T/C (dose: 2.0 mg/kg/injection, schedule: Q02DX009 (ip), vehicle: saline with Tween-80): 99 % of control and 122 % of control
- T/C [4]: 170 % of control
- T/C (dose: 8.0 mg/kg/injection, schedule: Q02DX009 (ip), vehicle: saline with Tween-80): 153 % of control

Compound: Cc1cc(NC(=O)CCc2ccc(N3C(N)=NC(N)=NC3(C)C)cc2)ccc1S(=O)(=O)F
- T/C (dose: 50.0 mg/kg/injection, schedule: Q01DX009 (ip), vehicle: saline sonified): 118 % of control
- T/C (dose: 100.0 mg/kg/injection, schedule: Q01DX009 (ip), vehicle: saline sonified): 94 % of control
- T/C (dose: 200.0 mg/kg/injection, schedule: Q01DX009 (ip), vehicle: saline sonified): 100 % of control

Compound: CCCCCCCCCCCCCCCCCC(=O)OCC(=O)OCC(=O)[C@]1(O)Cc2c(O)c3c(c(O)c2[C@@H](OC2CC(N)C(O)C(C)O2)C1)C(=O)c1c(OC)cccc1C3=O (stereo partly specified)
- T/C (dose: 3.75 mg/kg/injection, schedule: Q01DX001 (ip), vehicle: water): 236 % of control
- T/C (dose: 7.5 mg/kg/injection, schedule: Q01DX001 (ip), vehicle: water): 287 % of control and 289 % of control
- T/C (dose: 15.0 mg/kg/injection, schedule: Q01DX001 (ip), vehicle: water): 289 % of control
- T/C (dose: 30.0 mg/kg/injection, schedule: Q01DX001 (ip), vehicle: water): 154 % of control and 289 % of control (2×)
